# Reference: patent publication US20240208992A1, “MACROCYCLES AS CFTR MODULATORS” (Idorsia Pharmaceuticals Ltd, priority 2021, published 2024)
# Molecular target: human F508del-CFTR (Homo sapiens, UniProt P13569, DEL508-508)
# Assay: F508del-CFTR cell surface expression (corrector activity), DiscoveRx ß-galactosidase complementation chemiluminescence assay in recombinant U2OS cell line;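 also: U2OS cells co-expressing ProLink-tagged F508del-CFTR and a membrane-anchored enzyme acceptor, where more surface CFTR restores β-galactosidase activity measured by chemiluminescence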
# Conditions: for EC50: EC50, F508del-CFTR cell surface expression; for Emax: U2OS
# [1] = U2OS cell line, 16h compound incubation, geomean values
# [2] = U2OS cells, 16h compound incubation, geomean values
# [3] = in relation to Emax of corrector lumacaftor (=100%), arithmetic mean values
# [4] = in relation to the Emax of the corrector lumacaftor (=100%), U2OS cell line, 16h compound incubation, arithmetic mean values
# Chain of human F508del-CFTR (P13569 with tags, fused parts or gaps DEL508-508): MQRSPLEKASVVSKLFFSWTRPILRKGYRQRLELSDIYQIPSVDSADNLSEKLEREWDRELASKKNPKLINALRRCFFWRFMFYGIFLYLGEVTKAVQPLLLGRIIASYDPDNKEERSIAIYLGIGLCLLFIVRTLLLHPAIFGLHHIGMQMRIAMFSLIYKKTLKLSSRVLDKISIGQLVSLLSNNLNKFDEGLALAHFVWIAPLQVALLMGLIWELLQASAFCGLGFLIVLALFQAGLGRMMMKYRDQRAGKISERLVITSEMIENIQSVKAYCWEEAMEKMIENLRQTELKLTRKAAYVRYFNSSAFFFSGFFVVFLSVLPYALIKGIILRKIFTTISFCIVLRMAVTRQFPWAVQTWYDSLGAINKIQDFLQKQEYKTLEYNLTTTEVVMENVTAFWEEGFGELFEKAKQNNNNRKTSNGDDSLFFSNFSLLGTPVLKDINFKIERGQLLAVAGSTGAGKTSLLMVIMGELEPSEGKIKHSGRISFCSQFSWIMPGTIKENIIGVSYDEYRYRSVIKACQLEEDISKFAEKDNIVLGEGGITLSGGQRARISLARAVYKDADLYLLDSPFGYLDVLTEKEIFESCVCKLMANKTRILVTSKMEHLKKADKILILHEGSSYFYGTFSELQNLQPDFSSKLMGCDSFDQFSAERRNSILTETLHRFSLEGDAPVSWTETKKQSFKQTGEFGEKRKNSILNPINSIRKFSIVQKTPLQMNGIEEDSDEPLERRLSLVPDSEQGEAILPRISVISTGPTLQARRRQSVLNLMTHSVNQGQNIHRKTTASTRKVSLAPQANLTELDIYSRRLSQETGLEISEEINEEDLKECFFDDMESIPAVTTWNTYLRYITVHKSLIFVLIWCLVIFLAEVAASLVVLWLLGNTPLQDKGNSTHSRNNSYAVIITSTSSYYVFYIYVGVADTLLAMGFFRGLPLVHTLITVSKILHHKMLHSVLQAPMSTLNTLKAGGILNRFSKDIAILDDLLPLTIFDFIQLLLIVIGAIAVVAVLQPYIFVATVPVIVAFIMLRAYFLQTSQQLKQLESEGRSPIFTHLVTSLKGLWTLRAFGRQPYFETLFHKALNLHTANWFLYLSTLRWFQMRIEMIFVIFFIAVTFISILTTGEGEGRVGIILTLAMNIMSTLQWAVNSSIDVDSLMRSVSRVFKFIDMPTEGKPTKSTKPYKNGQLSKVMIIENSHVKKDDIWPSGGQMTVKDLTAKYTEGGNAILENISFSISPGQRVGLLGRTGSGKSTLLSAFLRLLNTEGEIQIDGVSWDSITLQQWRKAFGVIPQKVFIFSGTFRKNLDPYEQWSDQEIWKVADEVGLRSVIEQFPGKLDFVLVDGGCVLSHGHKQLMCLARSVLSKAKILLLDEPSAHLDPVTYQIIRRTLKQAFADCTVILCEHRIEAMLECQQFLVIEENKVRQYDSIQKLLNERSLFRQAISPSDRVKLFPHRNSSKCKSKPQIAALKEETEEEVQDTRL
Compound,EC50 [1],EC50 [2],Emax [3],also measured
"COc1cccc(CCNC(=O)[C@@H]2CC(=O)N(C)[C@@H](CC3CCCCC3)C(=O)N(CCC3CCCCC3)CC(=O)N[C@H](Cc3ccccc3)COc3ccc4ccccc4c3C(=O)N2)c1 (mixture of isomers) [Example 301, (3RS,7S,13R)-13-benzyl-9-(2-cyclohexylethyl)-7-(cyclohexylmethyl)-N-(3-methoxyphenethyl)-6-methyl-1,5,8,11-tetraoxo-1,2,3,4,5,6,7,8,9,10,11,12,13,14-tetradecahydronaphtho[1,2-p][1]oxa[4,7,10,14]tetraazacycloheptadecine-3-carboxamide]",112 nM,–,–,–
"COc1cc2c(cn1)OC[C@@H](Cc1ccccc1)NC(=O)[C@@H]1CCCCN1C(=O)[C@H](CC(C)C)N(C)C(=O)C[C@@H](C(=O)NCCc1noc(C3CC3)n1)NC2=O (mixture of isomers) [Example 516, (7S,11S,17aRS,20R)-20-benzyl-N-(2-(5-cyclopropyl-1,2,4-oxadiazol-3-yl)ethyl)-11-isobutyl-3-methoxy-10-methyl-5,9,12,18-tetraoxo-5,6,7,8,9,10,11,12,15,16,17,17a,18,19,20,21-hexadecahydro-14H-dipyrido[2,1-f:4′,3′-p][1]oxa[4,7,10,14]tetraazacycloheptadecine-7-carboxamide]",–,494 nM,155%,–
"COc1cccc(CCNC(=O)[C@@H]2CC(=O)N(C)[C@@H](CC(C)C)C(=O)N3CCc4ccccc4[C@H]3C(=O)N[C@H](Cc3ccccc3)COc3ccnc(OC)c3C(=O)N2)c1 (mixture of isomers) [Example 569, (7S,11S,19bRS,22R)-22-benzyl-11-isobutyl-4-methoxy-N-(3-methoxyphenethyl)-10-methyl-5,9,12,20-tetraoxo-5,6,7,8,9,10,11,12,15,19b,20,21,22,23-tetradecahydro-14H-pyrido[3′,4′:16,17][1]oxa[4,7,10,14]tetraazacycloheptadecino[6,7-a]isoquinoline-7-carboxamide]",–,108 nM,270%,–
"COc1cccc(CCNC(=O)[C@@H]2CC(=O)N(C)[C@@H](CC(C)C)C(=O)N(C)[C@@H](C)C(=O)N[C@H](Cc3ccccc3)COc3ccc4cc(C)oc4c3C(=O)N2)c1 (mixture of isomers) [Example 575, (8R,11RS,14S,18S)-8-benzyl-14-isobutyl-N-(3-methoxyphenethyl)-2,11,12,15-tetramethyl-10,13,16,20-tetraoxo-7,8,9,10,11,12,13,14,15,16,17,18,19,20-tetradecahydrobenzofuro[7,6-p][1]oxa[4,7,10,14]tetraazacycloheptadecine-18-carboxamide]",–,411 nM,273%,–
"Cc1cc(CCNC(=O)[C@@H]2CC(=O)N(C)[C@@H](CC(C)C)C(=O)N(C)[C@@H](C)C(=O)N[C@H](Cc3ccccc3)COc3ccc4cc(C)oc4c3C(=O)N2)on1 (mixture of isomers) [Example 576, (8R,11RS,14S,18S)-8-benzyl-14-isobutyl-2,11,12,15-tetramethyl-N-(2-(3-methylisoxazol-5-yl)ethyl)-10,13,16,20-tetraoxo-7,8,9,10,11,12,13,14,15,16,17,18,19,20-tetradecahydrobenzofuro[7,6-p][1]oxa[4,7,10,14]tetraazacycloheptadecine-18-carboxamide]",–,523 nM,268%,–
"COc1cccc(CCNC(=O)[C@@H]2CC(=O)N(C)[C@@H](CC(C)C)C(=O)N3CCOC[C@H]3C(=O)N[C@H](Cc3ccccc3)COc3ccc4c(C)noc4c3C(=O)N2)c1 (mixture of isomers) [Example 624, (4aRS,7R,17S,21S)-7-benzyl-21-isobutyl-N-(3-methoxyphenethyl)-12,20-dimethyl-5,15,19,22-tetraoxo-1,2,4,4a,5,6,7,8,15,16,17,18,19,20,21,22-hexadecahydroisoxazolo[4′,5′:5,6]benzo[1,2-p][1,4]oxazino[3,4-f][1]oxa[4,7,10,14]tetraazacycloheptadecine-17-carboxamide]",–,921 nM,171%,–
"COc1cc2c(cn1)OC[C@@H](Cc1ccccc1)NC(=O)[C@@H]1CCCCN1C(=O)[C@H](CC(C)C)N(C)C(=O)C[C@@H](C(=O)NCCc1cc(C3CC3)no1)NC2=O (mixture of isomers) [Example 652, (7S,11S,17aRS,20R)-20-benzyl-N-(2-(3-cyclopropylisoxazol-5-yl)ethyl)-11-isobutyl-3-methoxy-10-methyl-5,9,12,18-tetraoxo-5,6,7,8,9,10,11,12,15,16,17,17a,18,19,20,21-hexadecahydro-14H-dipyrido[2,1-f:4′,3′-p][1]oxa[4,7,10,14]tetraazacycloheptadecine-7-carboxamide]",–,593 nM,155%,–
"COc1cccc(CCNC(=O)[C@@H]2CC(=O)N(C)[C@@H](CC(C)C)C(=O)N(C)[C@@H](COC(C)(C)C)C(=O)N[C@H](Cc3ccccc3)COc3ccc4ccccc4c3C(=O)N2)c1 (mixture of isomers) [Example 717, (3S,7S,10RS,13R)-13-benzyl-10-(tert-butoxymethyl)-7-isobutyl-N-(3-methoxyphenethyl)-6,9-dimethyl-1,5,8,11-tetraoxo-1,2,3,4,5,6,7,8,9,10,11,12,13,14-tetradecahydronaphtho[1,2-p][1]oxa[4,7,10,14]tetraazacycloheptadecine-3-carboxamide]",–,69 nM,348%,–
"COc1cccc(CCNC(=O)[C@@H]2CC(=O)N(C)[C@@H](CC(C)C)C(=O)N(C)[C@@H](CO)C(=O)N[C@H](Cc3ccccc3)COc3ccc4ccccc4c3C(=O)N2)c1 (mixture of isomers) [Example 718, (3S,7S,10RS,13R)-13-benzyl-10-(hydroxymethyl)-7-isobutyl-N-(3-methoxyphenethyl)-6,9-dimethyl-1,5,8,11-tetraoxo-1,2,3,4,5,6,7,8,9,10,11,12,13,14-tetradecahydronaphtho[1,2-p][1]oxa[4,7,10,14]tetraazacycloheptadecine-3-carboxamide]",–,359 nM,–,–
"COc1cc(CCNC(=O)[C@@H]2CC(=O)N(C)[C@@H](CC(C)C)C(=O)N(C)[C@@H](CC(F)(F)F)C(=O)N[C@H](Cc3ccccc3)COc3ccc4nc(C)oc4c3C(=O)N2)on1 (mixture of isomers) [Example 974, (8R,11RS,14S,18S)-8-benzyl-14-isobutyl-N-(2-(3-methoxyisoxazol-5-yl)ethyl)-2,12,15-trimethyl-10,13,16,20-tetraoxo-11-(2,2,2-trifluoroethyl)-7,8,9,10,11,12,13,14,15,16,17,18,19,20-tetradecahydrooxazolo[4′,5′:5,6]benzo[1,2-p][1]oxa[4,7,10,14]tetraazacycloheptadecine-18-carboxamide]",–,–,–,"EC50 (U2OS cells, 16h compound incubation, geomean of several measurements): 703 nM; Emax (in relation to the Emax of the corrector lumacaftor (=100%), U2OS cells, 16h compound incubation, arithmetic mean): 440%"
"CC(C)C[C@H]1C(=O)N(CCC(C)(C)C)CC(=O)N[C@H](Cc2ccccc2)COc2cc3c(cc2C(=O)N[C@H](C(=O)NCCc2ccc4c(c2)OCO4)CC(=O)N1C)OCO3 (racemic) [Example 1, (7R,13S,17RS)-N-(2-(benzo[d][1,3]dioxol-5-yl)ethyl)-7-benzyl-11-(3,3-dimethylbutyl)-13-isobutyl-14-methyl-9,12,15,19-tetraoxo-6,7,8,9,10,11,12,13,14,15,16,17,18,19-tetradecahydro-[1,3]dioxolo[4′,5′:4,5]benzo[1,2-p][1]oxa[4,7,10,14]tetraazacycloheptadecine-17-carboxamide]",56 nM,–,–,Emax [4]: 105%
"CC(C)C[C@H]1C(=O)N(CCc2ccccc2)CC(=O)N[C@H](Cc2ccccc2)COc2cc3c(cc2C(=O)N[C@H](C(=O)NCCc2ccc4c(c2)OCO4)CC(=O)N1C)OCO3 (racemic) [Example 5, (7R,13S,17RS)-N-(2-(benzo[d][1,3]dioxol-5-yl)ethyl)-7-benzyl-13-isobutyl-14-methyl-9,12,15,19-tetraoxo-11-phenethyl-6,7,8,9,10,11,12,13,14,15,16,17,18,19-tetradecahydro-[1,3]dioxolo[4′,5′:4,5]benzo[1,2-p][1]oxa[4,7,10,14]tetraazacycloheptadecine-17-carboxamide]",369 nM,–,–,Emax [4]: 109%
"CC(C)C[C@H]1C(=O)N(CCCOCc2ccccc2)CC(=O)N[C@H](Cc2ccccc2)COc2cc3c(cc2C(=O)N[C@H](C(=O)NCCc2ccc4c(c2)OCO4)CC(=O)N1C)OCO3 (racemic) [Example 6, (7R,13S,17RS)-N-(2-(benzo[d][1,3]dioxol-5-yl)ethyl)-7-benzyl-11-(3-(benzyloxy)propyl)-13-isobutyl-14-methyl-9,12,15,19-tetraoxo-6,7,8,9,10,11,12,13,14,15,16,17,18,19-tetradecahydro-[1,3]dioxolo[4′,5′:4,5]benzo[1,2-p][1]oxa[4,7,10,14]tetraazacycloheptadecine-17-carboxamide]",420 nM,–,–,Emax [4]: 112%
"COc1cc2c(cc1OC)C(=O)N[C@H](C(=O)NCCc1ccc3c(c1)OCO3)CC(=O)N(C)[C@@H](CC1CC1)C(=O)N(CCC1CCCCC1)CC(=O)N[C@H](Cc1ccccc1)CO2 (racemic) [Example 9, (3R,9S,13RS)-N-(2-(benzo[d][1,3]dioxol-5-yl)ethyl)-3-benzyl-7-(2-cyclohexylethyl)-9-(cyclopropylmethyl)-17,18-dimethoxy-10-methyl-5,8,11,15-tetraoxo-2,3,4,5,6,7,8,9,10,11,12,13,14,15-tetradecahydrobenzo[p][1]oxa[4,7,10,14]tetraazacycloheptadecine-13-carboxamide]",360 nM,–,–,Emax [4]: 130%
